Tested on: odorant receptor OR5
Assay: IR spectroscopy of OR5/tBLM system upon addition of odorant
Format: binding, rat
Procedure: The activity of incorporated odorant receptors was measured using IR spectroscopy.

signal change of the IR amide I peak (recognition of the odor by the receptor) (1 mM lilial added to tBLM integrated OR5): recognition of the odor by the receptor
reversibility of the lilial/OR5 interaction (rinsing with PBS): can be reversed by rinsing with PBS
SMILES: CC(C=O)Cc1ccc(C(C)(C)C)cc1 (centres unmarked) [lilial]
